# pEC50: −log10 of the molar value.
# Test system: H4 cells, SNCA 5'UTR luciferase reporter translation
# Experiment: alpha-synuclein stem-loop translation blockers – luminescence, H4 neuroglioblastoma cells, dose confirmation, confirmation (AID 2454)
structure (smiles),measurement,value
COc1ccc(O)c2c(=O)c3c(OC)cc4c(c3oc12)C1C=COC1O4 (stereo unspecified),pEC50,6.24

# — PubChem BioAssay AID2454 (Broad Institute, 2010)
